Data from PubChem BioAssay (NCI).
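Following 48 hours of exposure in 96-well plates, responses at five concentrations were used to interpolate endpoints linearly. GI50: concentration for 50% inhibition of growth. TGI is the concentration that stops growth completely.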

Experiments:
Test in all cases: NCI tumour cell line growth inhibition, 48 h
NCI-H226 lung = test system: NCI-H226 lung
RPMI-8226 leukemia = test system: RPMI-8226 leukemia
T-47D breast = test system: T-47D breast
DLD-1 colon = test system: DLD-1 colon
DMS 114 small cell lung = test system: DMS 114 small cell lung
HOP-18 NSCLC = test system: HOP-18 NSCLC
KM20L2 colon = test system: KM20L2 colon
M19-MEL melanoma = test system: M19-MEL melanoma
NCI-H522 lung = test system: NCI-H522 lung
P388 leukemia = test system: P388 leukemia
SF-539 CNS = test system: SF-539 CNS
SN12C renal = test system: SN12C renal
BT-549 breast = test system: BT-549 breast

| SMILES | GI50 (NCI-H226 lung) [µM] | TGI (NCI-H226 lung) [µM] | GI50 (RPMI-8226 leukemia) [µM] | TGI (RPMI-8226 leukemia) [µM] | GI50 (T-47D breast) [µM] | TGI (T-47D breast) [µM] | TGI (DLD-1 colon) [µM] | TGI (DMS 114 small cell lung) [µM] | TGI (HOP-18 NSCLC) [µM] | TGI (KM20L2 colon) [µM] | TGI (M19-MEL melanoma) [µM] | TGI (NCI-H522 lung) [µM] | TGI (P388 leukemia) [µM] | TGI (SF-539 CNS) [µM] | TGI (SN12C renal) [µM] | GI50 (BT-549 breast) [µM] | TGI (BT-549 breast) [µM] | GI50 (NCI-H522 lung) [µM] | GI50 (SF-539 CNS) [µM] | GI50 (SN12C renal) [µM] |
| --- | --- | --- | --- | --- | --- | --- | --- | --- | --- | --- | --- | --- | --- | --- | --- | --- | --- | --- | --- | --- |
| CC(CNc1nc(Nc2ccc(Cl)c(Cl)c2)nc(C(Cl)(Cl)Cl)n1)N(C)C (configuration not stated) | 1.8 | 3.51 | 1.85 | 4.58 | 1.91 | 4.44 |  |  |  |  |  |  |  |  |  |  |  |  |  |  |
| C/C=C1/C(=O)O[C@]23C=C[C@@H]4C(C(=O)OC)=CO[C@H](O[C@@H]12)[C@@H]43 |  | 5.36 |  | 3.4 |  |  | 2.94 | 2.82 | 10.4 | 15.4 | 4.38 | 2.19 | 1.83 | 7.39 | 4.88 |  |  |  |  |  |
| Cc1ccc(C(=O)N/N=C(\N=Nc2ccccc2)c2ccc(N(CCC#N)CCC#N)cc2C)cc1 |  | > 100 |  | > 100 |  | > 100 |  |  |  |  |  | 61.3 |  | 39.9 |  |  |  |  |  |  |
| O=C1NC(=O)C2(CCc3ccc(N(CCCl)CCCl)cc32)N1 (configuration not stated) |  | 21.7 |  | 99.2 |  |  | > 81.8 | 26 | 64.4 | 42.8 | 39.5 | 20.3 | 15.5 | 22.2 | > 100 |  |  |  |  |  |
| CC(=O)Nc1nc(C)c(-c2cc3c(c(S(C)(=O)=O)c2)C(=O)N([C@@H](C)C2CC2)C3)s1 | 28.7 | > 100 | 17.6 | 52.9 | 10.7 | 45 |  |  |  |  |  | > 100 |  | > 100 | > 100 | 29.1 | > 100 | 25.4 | 24.2 | 28.5 |
| COc1ccc(/C=C/C(=O)/C=C(/C=C/c2ccc(OC)c(OC)c2OC)OB(F)F)c(OC)c1OC |  |  | 0.466 | 2.77 | 3.62 | > 100 |  |  |  |  |  | 4.62 |  | > 100 | > 100 |  |  | 1.35 | 3.11 | 2.01 |
| COc1ccc(-c2c(C#N)cnc(N)c2-c2nc3cc(C)c(C)cc3[nH]2)cc1 | 16.4 | > 100 | 32.5 | > 100 | 15.4 | > 100 |  |  |  |  |  | 54.7 |  | 41.9 | > 100 | 30.6 | > 100 | 4.74 | 11.5 | 25.4 |
| CC1CC(c2ccc([N+](=O)[O-])cc2)=Nc2ccccc2S1=O (configuration not stated) |  | 80.4 |  | 31.9 |  |  | 33.6 | 33.2 |  | 29.9 | 30.8 | 25.9 |  | 45 | > 100 |  |  |  |  |  |
| CC(=O)O[C@@H]1CN(S(=O)(=O)c2ccc(C)cc2)C[C@@H]1C1CCCCC1 |  | 34.6 |  | 67.7 |  | > 100 |  |  |  |  |  |  |  | 0.609 |  |  |  |  |  |  |
| COc1ccc2oc3c(ccc[n+]3C)c(=O)c2c1 |  | > 100 |  |  |  | > 100 |  |  |  |  |  | > 100 |  | > 100 | > 100 |  |  |  |  |  |
| COc1cc2c(cc1O)N=C[C@@H]1CCC(O)N1C2=O (mixture of isomers) |  | 2.08 |  | 2.39 |  |  | 13.5 | 1.41 | 3.39 | 24.9 | 4.81 | 0.636 | 9.2 | 1.83 | 19.1 |  |  |  |  |  |
| CCc1ncc(C(C)(O)c2ccccc2)n1Cc1ccccc1 (configuration not stated) |  | > 100 |  | > 100 |  | > 100 |  |  |  |  |  | > 100 |  | > 100 | 60.6 |  | > 100 |  |  |  |
